{"source": "patent US20140135357A1", "about": "“DOSE REGIME FOR CAMPTOTHECIN DERIVATIVES” (Taiwan Liposome Company, Ltd., priority 2012, published 2014)", "key": {"[1]": {"test": "in-vitro study of anti-proliferative activity", "format": "cell-based"}, "clinical": {"test": "clinical", "conditions": "human, in vivo"}, "topoisomerase I": {"target": "T1, topoisomerase I (Homo sapiens, UniProt P11387)", "T1 sequence (P11387 1-765)": "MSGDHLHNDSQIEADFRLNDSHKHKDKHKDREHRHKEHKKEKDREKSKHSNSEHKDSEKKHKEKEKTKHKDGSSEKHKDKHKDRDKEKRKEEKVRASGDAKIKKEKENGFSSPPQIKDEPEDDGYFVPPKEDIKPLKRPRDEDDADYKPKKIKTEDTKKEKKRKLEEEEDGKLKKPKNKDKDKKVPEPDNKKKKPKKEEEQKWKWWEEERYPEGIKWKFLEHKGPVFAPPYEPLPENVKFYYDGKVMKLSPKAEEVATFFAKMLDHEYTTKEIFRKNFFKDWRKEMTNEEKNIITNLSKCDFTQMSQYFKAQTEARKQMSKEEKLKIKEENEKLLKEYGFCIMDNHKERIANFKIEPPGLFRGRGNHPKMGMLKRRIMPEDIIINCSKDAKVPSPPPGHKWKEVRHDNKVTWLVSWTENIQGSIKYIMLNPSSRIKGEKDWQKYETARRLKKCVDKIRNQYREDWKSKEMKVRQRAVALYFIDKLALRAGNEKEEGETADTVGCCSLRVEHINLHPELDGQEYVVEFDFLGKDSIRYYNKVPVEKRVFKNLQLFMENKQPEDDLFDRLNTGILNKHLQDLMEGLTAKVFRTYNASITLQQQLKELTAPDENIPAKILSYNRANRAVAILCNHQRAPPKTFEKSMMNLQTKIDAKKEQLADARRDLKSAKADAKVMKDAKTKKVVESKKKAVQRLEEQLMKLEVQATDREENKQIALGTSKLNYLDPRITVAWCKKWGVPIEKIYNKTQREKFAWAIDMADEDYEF", "test": "Topoisomerase I inhibition", "format": "biochemical"}, "[2]": {"conditions": "human, in vivo"}}, "note": "Entries after “also recorded” stand apart in the source; their conditions may differ. Like-named read-outs stand apart in the source and are kept apart here.", "data": [{"molecule": "CC[C@@]1(OC(=O)[C@H](C)O)C(=O)OCc2c1cc1n(c2=O)Cc2cc3c(CN(C)C)c(O)ccc3nc2-1", "note": "[TLC-U2, S,S-topotecan lactate]", "values": [{"measurement": "anti-proliferative activity", "setting": "[1]", "value": "comparable to that of TLC 388HCl; also recorded: more potent than that of TLC-U1"}, {"measurement": "AUC0-t", "setting": "clinical; 1.5 mg/m2, AUC0-t", "value": 3.74, "unit": "ng·h/mL"}, {"measurement": "Cmax", "setting": "clinical; 1.5 mg/m2, Cmax", "value": 3.34, "unit": "ng/mL"}, {"measurement": "Tmax", "setting": "clinical; 1.5 mg/m2, Tmax", "value": 37.7, "unit": "min"}, {"measurement": "half-life", "setting": "clinical; 1.5 mg/m2, t1/2", "value": 138, "unit": "min"}, {"measurement": "AUC0-t", "setting": "clinical; 3 mg/m2, AUC0-t", "value": 7.91, "unit": "ng·h/mL"}, {"measurement": "Cmax", "setting": "clinical; 3 mg/m2, Cmax", "value": 5.14, "unit": "ng/mL"}, {"measurement": "Tmax", "setting": "clinical; 3 mg/m2, Tmax", "value": 28, "unit": "min"}, {"measurement": "half-life", "setting": "clinical; 3 mg/m2, t1/2", "value": 140, "unit": "min"}, {"measurement": "AUC0-t", "setting": "clinical; 6 mg/m2, AUC0-t", "value": 11.6, "unit": "ng·h/mL"}, {"measurement": "Cmax", "setting": "clinical; 6 mg/m2, Cmax", "value": 7.52, "unit": "ng/mL"}, {"measurement": "Tmax", "setting": "clinical; 6 mg/m2, Tmax", "value": 28, "unit": "min"}, {"measurement": "half-life", "setting": "clinical; 6 mg/m2, t1/2", "value": 148, "unit": "min"}, {"measurement": "AUC0-t", "setting": "clinical; 9 mg/m2, AUC0-t", "value": 15.5, "unit": "ng·h/mL"}, {"measurement": "Cmax", "setting": "clinical; 9 mg/m2, Cmax", "value": 11.5, "unit": "ng/mL"}, {"measurement": "Tmax", "setting": "clinical; 9 mg/m2, Tmax", "value": 30.2, "unit": "min"}, {"measurement": "half-life", "setting": "clinical; 9 mg/m2, t1/2", "value": 195, "unit": "min"}, {"measurement": "AUC0-t", "setting": "clinical; 13.5 mg/m2", "value": 29.1, "unit": "ng·h/mL"}, {"measurement": "Cmax", "setting": "clinical; 13.5 mg/m2", "value": 18.1, "unit": "ng/mL"}, {"measurement": "Tmax", "setting": "clinical; 13.5 mg/m2", "value": 22, "unit": "min"}, {"measurement": "half-life", "setting": "clinical; 13.5 mg/m2", "value": 147, "unit": "min"}, {"measurement": "AUC0-t", "setting": "clinical; 20 mg/m2, AUC0-t", "value": 33.6, "unit": "ng·h/mL"}, {"measurement": "Cmax", "setting": "clinical; 20 mg/m2, Cmax", "value": 28.6, "unit": "ng/mL"}, {"measurement": "Tmax", "setting": "clinical; 20 mg/m2, Tmax", "value": 29, "unit": "min"}, {"measurement": "half-life", "setting": "clinical; 20 mg/m2, t1/2", "value": 149, "unit": "min"}, {"measurement": "AUC0-t", "setting": "clinical; 30 mg/m2, AUC0-t", "value": 49.5, "unit": "ng·h/mL"}, {"measurement": "Tmax", "setting": "clinical; 30 mg/m2, Tmax", "value": 25.5, "unit": "min"}, {"measurement": "half-life", "setting": "clinical; 30 mg/m2, t1/2", "value": 139, "unit": "min"}, {"measurement": "AUC0-t", "setting": "clinical; 35 mg/m2, AUC0-t", "value": 88.2, "unit": "ng·h/mL"}, {"measurement": "Cmax", "setting": "clinical; 35 mg/m2, Cmax", "value": 48.5, "unit": "ng/mL"}, {"measurement": "Tmax", "setting": "clinical; 35 mg/m2, Tmax", "value": 36.5, "unit": "min"}, {"measurement": "half-life", "setting": "clinical; 35 mg/m2, t1/2", "value": 188, "unit": "min"}, {"measurement": "AUC0-t", "setting": "clinical; 40 mg/m2, AUC0-t", "value": 74.1, "unit": "ng·h/mL"}, {"measurement": "Cmax", "setting": "clinical; 40 mg/m2, Cmax", "value": 52.5, "unit": "ng/mL"}, {"measurement": "Tmax", "setting": "clinical; 40 mg/m2, Tmax", "value": 26.7, "unit": "min"}, {"measurement": "half-life", "setting": "clinical; 40 mg/m2, t1/2", "value": 157, "unit": "min"}, {"measurement": "AUC0-t", "setting": "clinical; 50 mg/m2, AUC0-t", "value": 101, "unit": "ng·h/mL"}, {"measurement": "Cmax", "setting": "clinical; 50 mg/m2, Cmax", "value": 65.7, "unit": "ng/mL"}, {"measurement": "Tmax", "setting": "clinical; 50 mg/m2, Tmax", "value": 23.4, "unit": "min"}, {"measurement": "half-life", "setting": "clinical; 50 mg/m2, t1/2", "value": 153, "unit": "min"}, {"measurement": "AUC0-t", "setting": "clinical; 60 mg/m2, AUC0-t", "value": 107, "unit": "ng·h/mL"}, {"measurement": "Cmax", "setting": "clinical; 60 mg/m2, Cmax", "value": 87.4, "unit": "ng/mL"}, {"measurement": "Tmax", "setting": "clinical; 60 mg/m2, Tmax", "value": 27, "unit": "min"}, {"measurement": "half-life", "setting": "clinical; 60 mg/m2, t1/2", "value": 153, "unit": "min"}, {"measurement": "Tmax", "setting": "clinical; 60 mg/m2, tmax", "value": "28.2 ± 8.4", "unit": "min"}, {"measurement": "half-life", "setting": "clinical; T1/2", "value": "> 150", "unit": "min"}, {"measurement": "Tmax", "setting": "clinical; Tmax", "value": "< 60", "unit": "min"}, {"measurement": "topoisomerase I inhibition", "setting": "topoisomerase I", "value": "weak topoisomerase I Inhibitors"}, {"measurement": "Dose-normalized AUClast", "setting": "[2]", "value": "4.05 ± 1.34 nM*h/(mg/m^2)"}, {"measurement": "Dose-normalized Cmax", "setting": "[2]", "value": "2.84 ± 0.97 nM/(mg/m^2)"}, {"measurement": "difference between PK profiles on Day 1 and Day 8", "setting": "[2]", "value": "no significant difference"}, {"measurement": "dose proportionality of exposure", "setting": "[2]", "value": "roughly dose proportional"}, {"measurement": "AUC0-t", "setting": "[2]; 1.5 mg/m2", "value": "2.872 (0.882) hr · ng/mL"}, {"measurement": "Cmax", "setting": "[2]; 1.5 mg/m2", "value": "2.117 (0.468) ng/mL"}, {"measurement": "Tmax", "setting": "[2]; 1.5 mg/m2", "value": "0.505 (0.039) hr"}, {"measurement": "t1/2", "setting": "[2]; 1.5 mg/m2", "value": "1.953 (0.698) hr"}, {"measurement": "AUC0-t", "setting": "[2]; 3 mg/m2", "value": "5.625 (1.972) hr · ng/mL"}, {"measurement": "AUC0-t", "setting": "[2]; 6 mg/m2", "value": "11.599 (1.437) hr · ng/mL"}, {"measurement": "AUC0-t", "setting": "[2]; 9 mg/m2", "value": "16.581 (3.976) hr · ng/mL"}, {"measurement": "AUC0-t", "setting": "[2]; 20 mg/m2", "value": "29.023 (7.443) hr · ng/mL"}, {"measurement": "AUC0-t", "setting": "[2]; 30 mg/m2", "value": "78.761 (50.88) hr · ng/mL"}, {"measurement": "AUC0-t", "setting": "[2]; 35 mg/m2", "value": "102.97 (20.18) hr · ng/mL"}, {"measurement": "Cmax", "setting": "[2]; 35 mg/m2", "value": "74.800 (42.82) ng/mL"}, {"measurement": "Tmax", "setting": "[2]; 35 mg/m2", "value": "0.592 (0.091) hr"}, {"measurement": "t1/2", "setting": "[2]; 35 mg/m2", "value": "3.347 (1.219) hr"}, {"measurement": "AUC0-t", "setting": "[2]; 40 mg/m2", "value": "72.758 (49.22) hr · ng/mL"}, {"measurement": "AUC0-t", "setting": "[2]; 50 mg/m2", "value": "97.314 (38.34) hr · ng/mL"}, {"measurement": "AUC0-t", "setting": "[2]; 60 mg/m2", "value": "109.80 (25.72) hr · ng/mL"}, {"measurement": "time at which peak plasma concentrations (Cmax) were achieved", "setting": "[2]; iv", "value": "within one hour"}, {"measurement": "time of rapid rise of the metabolites in the serum after starting the infusion", "setting": "[2]; iv", "value": "≤ 15", "unit": "min"}]}]}
